Measurements published in the supplement of paper PMC10307832.

Assays:
Assay in all cases: relative viability (nuclei count vs DMSO), 5 days (fraction); higher = more cells survive
[1] = compound: COc1cc(-c2nn([C@H]3CC[C@H](N4CCN(C(C)=O)CC4)CC3)c3ncnc(N)c23)ccc1NC(=O)c1cc2ccccc2n1C + CC(=O)Nc1cccc(-n2c(=O)n(C3CC3)c(=O)c3c(Nc4ccc(I)cc4F)n(C)c(=O)c(C)c32)c1 [Trametinib] (partner 0.02 µM)
How it was run: (§1)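 Lung cancer cell lines were seeded in 1536-well plates and dosed by pin tool the next day, with either a single drug or a fixed anchor-drug dose combined with five library-drug doses (not always all listed) spaced in √10 steps. Five days later, one step fixed the cells and stained their nuclei (final 0.05% Triton X-100, 1% formaldehyde, 1 ug/ml Hoechst), and nuclei were counted on 4× images. Relative viability is the nuclei count in treated wells divided by the count in vehicle wells, and each value is the median of duplicate plates.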

[2] = compound: CO[C@@H]1[C@H](N(C)C(=O)c2ccccc2)C[C@H]2O[C@]1(C)n1c3ccccc3c3c4c(c5c6ccccc6n2c5c31)C(=O)NC4 [Midostaurin] + C[C@@H](Oc1cc(-c2cnn(C3CCNCC3)c2)cnc1N)c1c(Cl)ccc(F)c1Cl [Crizotinib] (partner 1 µM)
How it was run: as §1

[3] = compound: COc1cc(-c2nn([C@H]3CC[C@H](N4CCN(C(C)=O)CC4)CC3)c3ncnc(N)c23)ccc1NC(=O)c1cc2ccccc2n1C + Nc1ncn([C@H]2C[C@H](O)[C@@H](CO)O2)c(=O)n1 [Decitabine] (partner 2 µM)
How it was run: as §1

[4] = compound: COc1cc(-c2nn([C@H]3CC[C@H](N4CCN(C(C)=O)CC4)CC3)c3ncnc(N)c23)ccc1NC(=O)c1cc2ccccc2n1C + Cc1cc(Nc2cc(N3CCN(C)CC3)nc(Sc3ccc(NC(=O)C4CC4)cc3)n2)n[nH]1 [Tozasertib] (partner 0.1 µM)
How it was run: as §1

[5] = compound: CO[C@@H]1[C@H](N(C)C(=O)c2ccccc2)C[C@H]2O[C@]1(C)n1c3ccccc3c3c4c(c5c6ccccc6n2c5c31)C(=O)NC4 [Midostaurin] + CC(=O)c1c(C)c2cnc(Nc3ccc(N4CCNCC4)cn3)nc2n(C2CCCC2)c1=O [Palbociclib] (partner 0.5 µM)
How it was run: as §1

UMC-11
relative viability ([1]; first compound 0.0128 µM): 0.654 | relative viability ([1]; first compound 0.04048 µM): 0.689 | relative viability ([1]; first compound 0.128 µM): 0.67 | relative viability ([1]; first compound 1.28 µM): 0.661 | relative viability ([2]; first compound 0.01 µM): 0.553 | relative viability ([2]; first compound 0.03162 µM): 0.53 | relative viability ([2]; first compound 0.1 µM): 0.447 | relative viability ([2]; first compound 0.3162 µM): 0.179 | relative viability ([3]; first compound 0.0128 µM): 0.706 | relative viability ([3]; first compound 0.04048 µM): 0.606 | relative viability ([3]; first compound 0.128 µM): 0.745 | relative viability ([3]; first compound 1.28 µM): 0.543 | relative viability ([4]; first compound 0.0128 µM): 0.225 | relative viability ([4]; first compound 0.04048 µM): 0.19 | relative viability ([4]; first compound 0.128 µM): 0.197 | relative viability ([4]; first compound 1.28 µM): 0.193 | relative viability ([5]; first compound 0.01 µM): 0.352 | relative viability ([5]; first compound 0.03162 µM): 0.391 | relative viability ([5]; first compound 0.1 µM): 0.364 | relative viability ([5]; first compound 0.3162 µM): 0.284
